The pIC50 is the negative decadic logarithm of the IC50, by convention in mol/L. The low end stands for a large IC50, the high end for a small IC50.

Assay type in all cases: functional, cell-based
One experiment concerns HCT-116. Nature of the experiment: Cytotoxicity against human HCT116 cells.
For the next experiment, the system named is HeLa. Kind of experiment: Cytotoxicity against human HeLa cells assessed as effect on phenotypic features by automated microscopy and image analysis.
In a further experiment the test system is MCF7. Nature of the experiment: Cytotoxicity against human MCF7 cells.

Molecules are shown by their SMILES. pIC50: −log10 of the molar value. The source made the active and inactive calls. No cut-off for these calls is given here.

Turning to `CCCCCCCCCCC[C@@H]1CC(=O)N[C@H](CC(C)C)C(=O)N[C@@H](CO)C(=O)N[C@@H]([C@@H](C)O)C(=O)N[C@H](CC(C)C)C(=O)N[C@@H]([C@@H](C)CC)C(=O)O1`, the pIC50 in the experiment on HCT-116 is 4.74. In addition, the result with HeLa was Active.
For the molecule `CC[C@H](C)[C@@H]1NC(=O)[C@@H](CC(C)C)NC(=O)[C@H]([C@@H](C)O)NC(=O)[C@H](CO)NC(=O)[C@@H](CC(C)C)NC(=O)C[C@@H](CCCCCCC(C)C)OC1=O`, the values for the negative logarithm of the IC50 (pIC50) in the experiment on HCT-116 and in the experiment on MCF7 were 4.30 and 5.22, respectively.
For the molecule `CCCCCCCCCC[C@@H]1CC(=O)N[C@H](CC(C)C)C(=O)N[C@@H](CO)C(=O)N[C@@H]([C@@H](C)O)C(=O)N[C@H](CC(C)C)C(=O)N[C@@H]([C@@H](C)CC)C(=O)O1`, the pIC50 in the experiment on HCT-116 is 4.49.
The molecule `CCCCCCC[C@@H]1CC(=O)N[C@H](CC(C)C)C(=O)N[C@@H](CO)C(=O)N[C@@H]([C@@H](C)O)C(=O)N[C@H](CC(C)C)C(=O)N[C@@H]([C@@H](C)CC)C(=O)O1` showed a pIC50 in the experiment with MCF7 of 5.40.
In the experiment with HCT-116, `CC[C@H](C)[C@@H]1NC(=O)[C@@H](CC(C)C)NC(=O)[C@H]([C@@H](C)O)NC(=O)[C@H](CO)NC(=O)[C@@H](CC(C)C)NC(=O)CCNC1=O` gave a negative logarithm of the IC50 (pIC50) of less than 3.00.
`CC[C@H](C)[C@@H]1NC(=O)[C@@H](CC(C)C)NC(=O)[C@H]([C@@H](C)O)NC(=O)[C@H](CO)NC(=O)[C@@H](CC(C)C)NC(=O)C[C@@H](CCCCCCCCC(C)C)OC1=O` gave a pIC50 with HCT-116 of 4.77.
On to `CCCCCC/C=C\CCC[C@@H]1CC(=O)N[C@H](CC(C)C)C(=O)N[C@@H](CO)C(=O)N[C@@H]([C@@H](C)O)C(=O)N[C@H](CC(C)C)C(=O)N[C@@H]([C@@H](C)CC)C(=O)O1`, for which the pIC50 was 4.55 in the experiment with HCT-116 and 5.40 in the experiment on MCF7. For the same molecule, the result in the experiment with HeLa was Active.
Take `CC[C@H](C)[C@@H]1NC(=O)[C@@H](CC(C)C)NC(=O)[C@H]([C@@H](C)O)NC(=O)[C@H](CO)NC(=O)[C@@H](CC(C)C)NC(=O)CCC(=O)C1=O`: in the experiment on HCT-116, the negative logarithm of the IC50 (pIC50) was less than 3.00.
Take `CCCCCCCCC[C@@H]1CC(=O)N[C@H](CC(C)C)C(=O)N[C@@H](CO)C(=O)N[C@@H]([C@@H](C)O)C(=O)N[C@H](CC(C)C)C(=O)N[C@@H]([C@@H](C)CC)C(=O)O1`: the pIC50 in the experiment on HCT-116 is 4.66; with MCF7 it was 5.52.

Source of the values: ChEMBL document CHEMBL3576857, “Biosynthetic products from a nearshore-derived gram-negative bacterium enable reassessment of the kailuin depsipeptides” (J Nat Prod, 2015).
